From PubChem BioAssay (NCI) come the findings set out here.

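Step 1: Grow cells in 96-well plates. Step 2: Expose to compound for 48 hours at 5 concentrations. Step 3: Interpolate endpoints linearly; if unreached, use highest concentration. GI50 is the concentration that inhibits growth by half. TGI is the concentration that stops growth completely.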 Where only a bound is given, the exact number is not on record here.

Among the test systems are 786-0 renal; DU-145 prostate; MALME-3M melanoma; NCI-H23 lung; OVCAR-4 ovarian; SF-268 CNS; SNB-19 CNS; T-47D breast; TK-10 renal; UACC-62 melanoma.
What all share (assay): DTP human tumour cell line panel, 48 h

Regarding `Cc1cn([C@H]2C[C@H](O)[C@@H](CO)O2)c(=O)nc1N`, the TGI in the assay with 786-0 renal, in the assay with DU-145 prostate, in the assay with MALME-3M melanoma, in the assay with NCI-H23 lung, in the assay with OVCAR-4 ovarian and with SF-268 CNS was > 100 µM throughout. Further, the TGI with SNB-19 CNS, in the assay on T-47D breast, in the assay with TK-10 renal and with UACC-62 melanoma was > 100 µM throughout.

On to `COc1cc(C(=O)O/N=C(\N)Cc2cccc3ccccc23)cc(OC)c1OC`, for which the GI50 (usually the concentration at which growth is held to half of that of the control) was 13.5 µM in the assay on 786-0 renal; 11.4 µM with DU-145 prostate; 8.4 µM with MALME-3M melanoma; 11.4 µM in the assay on NCI-H23 lung; 10.6 µM with OVCAR-4 ovarian; 7.55 µM with SF-268 CNS. The GI50 was 8.86 µM in the assay on SNB-19 CNS, 2.95 µM with T-47D breast, 20.7 µM in the assay on TK-10 renal and 2.49 µM in the assay with UACC-62 melanoma. Further, the TGI (as a rule, the concentration at which net growth stops) was determined as 26.7 µM in the assay on 786-0 renal; 23.7 µM in the assay on DU-145 prostate; 21.9 µM with MALME-3M melanoma; 29.8 µM in the assay on NCI-H23 lung; 26 µM in the assay with OVCAR-4 ovarian; 22.9 µM in the assay with SF-268 CNS. For the same compound, the TGI was 21.6 µM in the assay on SNB-19 CNS, 12.5 µM with T-47D breast, 35.2 µM in the assay with TK-10 renal and 6.73 µM with UACC-62 melanoma.

`CCCCCCCCCCC[C@@H](C[C@H]1OC(=O)[C@H]1CCCCCC)OC(=O)[C@@H](CC(C)C)NC=O`: the GI50 in the assay with 786-0 renal was 2.42 µM; in the assay with DU-145 prostate, 16.7 µM; with MALME-3M melanoma, 15.9 µM; with NCI-H23 lung it was 7.19 µM; in the assay on OVCAR-4 ovarian it was 3.6 µM; in the assay on SF-268 CNS, 2.31 µM. The GI50 is 5.02 µM with SNB-19 CNS, 13.3 µM with T-47D breast, 32.8 µM in the assay on TK-10 renal and 4.95 µM with UACC-62 melanoma. The TGI is 18.7 µM in the assay on 786-0 renal; > 100 µM in the assay with DU-145 prostate; 41.7 µM in the assay with MALME-3M melanoma; 67.4 µM in the assay on NCI-H23 lung; 37.7 µM in the assay on OVCAR-4 ovarian; 21.9 µM in the assay with SF-268 CNS. Further, the TGI in the assay on SNB-19 CNS is 25.4 µM; with T-47D breast, > 100 µM; in the assay with TK-10 renal it was > 100 µM; in the assay with UACC-62 melanoma it was 25.2 µM.

For the compound `CCOC(=O)c1ccccc1SC(C[N+](=O)[O-])c1ccccc1` (stereo not given), the GI50 in the assay with 786-0 renal is 2.23 µM; in the assay with DU-145 prostate, 5.91 µM; in the assay on MALME-3M melanoma, 14.8 µM; in the assay on NCI-H23 lung, 12.3 µM; with OVCAR-4 ovarian, 12.9 µM; in the assay on SF-268 CNS, 6.06 µM. For the same compound, the GI50 in the assay on SNB-19 CNS is 11.7 µM; in the assay on T-47D breast, 5.32 µM; in the assay with TK-10 renal, 5.91 µM; with UACC-62 melanoma it was 13.3 µM. For the same compound, the total growth inhibition concentration (TGI) turned out to be 4.97 µM in the assay with 786-0 renal; 18.4 µM in the assay on DU-145 prostate; 29.5 µM in the assay with MALME-3M melanoma; 35.1 µM with NCI-H23 lung; 25.5 µM in the assay with OVCAR-4 ovarian; 19.2 µM in the assay with SF-268 CNS. Further, the TGI in the assay on SNB-19 CNS stood at 23.9 µM; with T-47D breast, 42.6 µM; with TK-10 renal, 18.8 µM; with UACC-62 melanoma, 27.1 µM.

On to `Cc1ccc2nc3c(n2c1)C(=O)C(=O)c1ccccc1-3`, for which the GI50 was 0.527 µM in the assay with 786-0 renal; 0.288 µM in the assay with DU-145 prostate; 0.157 µM in the assay on MALME-3M melanoma; 0.217 µM with NCI-H23 lung; 0.21 µM in the assay with OVCAR-4 ovarian; 0.4 µM in the assay on SF-268 CNS. Also, the GI50 in the assay on SNB-19 CNS is 0.565 µM; with T-47D breast, 0.389 µM; in the assay on TK-10 renal, 1.28 µM; in the assay on UACC-62 melanoma, 0.152 µM. For the same compound, the TGI was determined as 1.15 µM with 786-0 renal; 1.12 µM with DU-145 prostate; 0.32 µM in the assay with MALME-3M melanoma; 0.576 µM with NCI-H23 lung; 0.537 µM with OVCAR-4 ovarian; 4.01 µM in the assay with SF-268 CNS. In addition, the TGI with SNB-19 CNS was 1.58 µM; in the assay on T-47D breast, 1.74 µM; with TK-10 renal it was 2.9 µM; in the assay on UACC-62 melanoma, 0.324 µM.

With `CC[C@H](C)[C@H](NC(=O)NC(C)(C)C)C(=O)N(C)[C@H](C[C@@H](OC(C)=O)c1nc(C(=O)N[C@@H](Cc2ccccc2)C[C@H](C)C(=O)OC)cs1)C(C)C`, the GI50 with 786-0 renal was 0.609 µM; with DU-145 prostate, 0.648 µM; in the assay on MALME-3M melanoma, > 5.51 µM; with NCI-H23 lung, 0.825 µM; in the assay on OVCAR-4 ovarian, 1.21 µM; in the assay with SF-268 CNS, 0.867 µM. Further, the GI50 was 1.12 µM in the assay on SNB-19 CNS, > 19 µM in the assay on T-47D breast, 0.963 µM with TK-10 renal and 0.172 µM in the assay with UACC-62 melanoma. Also, the concentration for total growth inhibition (TGI) was 4.59 µM in the assay on 786-0 renal; > 6.3 µM with DU-145 prostate; > 25 µM with MALME-3M melanoma; > 25 µM with NCI-H23 lung; > 25 µM in the assay with OVCAR-4 ovarian; > 25 µM with SF-268 CNS. Further, the TGI in the assay on SNB-19 CNS, with T-47D breast, with TK-10 renal and in the assay with UACC-62 melanoma was > 25 µM throughout.

As for `COc1cnc2c(c1)C(=O)c1c-2n(CCCNCCN2CCOCC2)c(=O)c2cc([N+](=O)[O-])ccc12`, the GI50 was 0.224 µM in the assay on 786-0 renal; 0.0608 µM with DU-145 prostate; 0.34 µM in the assay with MALME-3M melanoma; 0.152 µM with NCI-H23 lung; 0.334 µM in the assay with OVCAR-4 ovarian; 0.0818 µM with SF-268 CNS. For the same compound, the GI50 in the assay on SNB-19 CNS is 0.11 µM; with T-47D breast it was 0.11 µM; in the assay with TK-10 renal, 0.73 µM; in the assay with UACC-62 melanoma it was 0.0438 µM. Moreover, the TGI came out at 0.765 µM in the assay with 786-0 renal; 1.12 µM in the assay with DU-145 prostate; 2.86 µM with MALME-3M melanoma; 1.61 µM in the assay on NCI-H23 lung; 3.44 µM in the assay with OVCAR-4 ovarian; 13.3 µM with SF-268 CNS. The TGI with SNB-19 CNS worked out at 5.2 µM; in the assay with T-47D breast, 18.1 µM; in the assay on TK-10 renal it was 3.17 µM; in the assay with UACC-62 melanoma, 0.434 µM.
